According to patent EP0620008B1, “Use of vip, analogues and fragments thereof for the treatment of neurodegenerative diseases” (YEDA RESEARCH AND DEVELOPMENT COMPANY, LTD., priority 1993, dated 1999):
Where no end group is shown, it is not given here.

What was measured:
[1] = test system: neurons treated with fragment 25-35 of β-Amyloid peptide; test: survival of cerebral cortex neurons treated with fragment 25-35 of β-amyloid peptide; type: cell-based, rat; settings: 25 µM fragment alone; 5 days
Protocol: β-amyloid peptide is known to be involved in Alzheimer's disease and is a toxic substance to neurons grown in culture (Pike et al., J. of Neurosci., 13(4), 1676-1687 (1993)). Neurons from rat cerebral cortex, prepared as described above were treated with 25 µM of β-amyloid peptide fragment comprising amino acids in positions 25 to 35 mentioned in the above publication. The β-amyloid peptide fragment was dissolved in water and preincubated at 37°C for 48 h in 10% CO2. St-Nle^17-VIP (10 µl/1 ml medium) was added to the culture plates at varying concentrations together with the β-amyloid peptide fragment. The St-Nle^17-VIP was initially dissolved in DMSO to give a concentration of 10^-3 M and all further dilutions were performed in saline. Cells were then incubated for 5 days, stained with antibodies against neuron specific enolase and living neurons were counted as described above.

[2] = test system: untreated neurons; test: survival of untreated cerebral cortical neurons (protection from naturally occurring death); settings: for concentrations able to protect cells from naturally occurring death: cerebral cortical cultures of newborn rats, number of cells at 10^-12 M serves as control, Figs. 2-4
Protocol: (§1) • (a) Cerebral cortical cultures were prepared by a slight modification of the techniques described by Forsythe and Westbrook, (J. Physiol. Lond. 396:515 (1988)), in which cerebral cortex was used instead of hippocampus and newborn rats were utilized instead of E16 mice. […] Cerebral cortical cells were counted as above, however, only 40 fields per plate were counted comprising an area of 20 mm^2.
(§2) • (a) Cells were prepared as described in Example 5. […] One treatment was given at the beginning of a five day test period. Cell counts were performed on 100 fields, with a total area of 50 mm^2. Neurons were counted without knowledge of treatment.

[3] = test system: neurons treated with a VIP antagonist; test: survival of cerebral cortical neurons treated with a VIP antagonist
Protocol: as §1, §2

## GSNKGAIIGLM [fragment 25-35 of β-amyloid peptide]
[1]
  number of living neurons: 42 per 20 mm^2

## St-K-Q-M-A-V-K-K-Y-L-A-A-V-L (stearyl-KQMAVKKYLAAVL) [peptide 2]
[2]
  concentrations able to protect cells from naturally occurring death: above 10^-9 M

## St-H-S-D-G-I-F-T-D-S-Y-S-R-Y-R (stearyl-HSDGIFTDSYSRYR) [peptide 1]
[2]
  concentrations able to protect cells from naturally occurring death: above 10^-8 M

## St-A-V-T-T-D-N-Y-T (stearyl-AVTTDNYT) [peptide 5]
[3]; in the presence (Fig. 5A) and in the absence (Fig. 5B) of the VIP antagonist
  effect on neuronal survival: VIP agonist, stimulating neuronal survival
[3]; in the presence of 10^-8 M VIP antagonist, five day test period, Fig. 5A
  concentration of maximal activity (neuronal survival): 10^-10 M
[2]; in absence of the VIP antagonist, five day test period, Fig. 5B
  concentration of maximal activity (neuronal survival): 10^-8 M
